Measurements taken from ChEMBL document CHEMBL5500406, “Discovery of Novel Proteolysis-Targeting Chimera Molecules as Degraders of Programmed Cell Death-Ligand 1 for Breast Cancer Therapy” (J Med Chem, 2024).
Active and inactive are the calls of the source. The rule behind the calls is not given here.

Assays:
4T1 [1] = assay: Antitumor activity against mouse 4T1 cells allografted in BALB/c mouse assessed as reduction in tumor weight at 10 mg/kg, ip qd for 15 days; format: functional, organism-based; conditions: time 15.0 day
4T1 [2] = assay: Antitumor activity against mouse 4T1 cells allografted in BALB/c mouse assessed as reduction in tumor volume at 10 mg/kg, ip qd for 15 days; format: functional, organism-based; conditions: time 15.0 day
[3] = Cytotoxicity against BALB/c mouse PBMC cells at <=0.312 uM incubated for 48 hrs by MTT assay; format: toxicity, cell-based
4T1 [4] = assay: Antitumor activity against mouse 4T1 cells assessed as decrease in cell viability incubated for 24 hrs by LDH assay; format: functional, cell-based
[5] = molecular target: Protein cereblon/Programmed cell death 1 ligand 1 (Mus musculus) (UniProt Q9EP73+Q8C7D2); assay: PROTAC activity at CRBN/PD-L1 in mouse 4T1 cells at 0.156 to 5 uM incubated for 24 hrs by Western blot analysis; format: cell-based; conditions: dose 0.156-5 µM
Chain of Protein cereblon/Programmed cell death 1 ligand 1 (Mus musculus) (Q8C7D2 whole entry partner): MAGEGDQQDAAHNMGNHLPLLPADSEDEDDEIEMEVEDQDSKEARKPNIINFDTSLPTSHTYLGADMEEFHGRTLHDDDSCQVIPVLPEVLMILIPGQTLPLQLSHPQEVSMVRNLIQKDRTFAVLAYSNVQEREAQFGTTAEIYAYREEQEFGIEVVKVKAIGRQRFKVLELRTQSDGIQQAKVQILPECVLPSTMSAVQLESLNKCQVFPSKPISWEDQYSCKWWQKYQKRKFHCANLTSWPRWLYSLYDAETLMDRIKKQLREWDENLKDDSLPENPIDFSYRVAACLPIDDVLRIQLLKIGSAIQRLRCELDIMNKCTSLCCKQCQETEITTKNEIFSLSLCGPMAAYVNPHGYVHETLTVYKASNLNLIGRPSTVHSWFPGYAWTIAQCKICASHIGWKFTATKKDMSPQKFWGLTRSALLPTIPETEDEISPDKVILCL
Chain of Protein cereblon/Programmed cell death 1 ligand 1 (Mus musculus) (Q9EP73 19-290 limits assumed): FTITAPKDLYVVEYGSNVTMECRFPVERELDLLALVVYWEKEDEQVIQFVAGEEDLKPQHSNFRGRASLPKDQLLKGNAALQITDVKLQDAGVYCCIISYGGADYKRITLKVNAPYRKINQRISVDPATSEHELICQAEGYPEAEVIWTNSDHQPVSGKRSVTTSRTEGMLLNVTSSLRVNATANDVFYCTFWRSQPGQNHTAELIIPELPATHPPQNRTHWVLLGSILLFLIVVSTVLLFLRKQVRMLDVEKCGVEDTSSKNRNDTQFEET

| SMILES | Activity (4T1 [1]) | Activity (4T1 [2]) | Activity [3] | Activity (4T1 [4]) | Activity [5] |
| --- | --- | --- | --- | --- | --- |
| CC(=O)O[C@H]1C(=O)[C@@]2(C)[C@H]([C@H](OC(=O)c3ccccc3)[C@]3(O)C[C@H](OC(=O)[C@H](O)[C@@H](NC(=O)c4ccccc4)c4ccccc4)C(C)=C1C3(C)C)[C@]1(OC(C)=O)CO[C@@H]1C[C@@H]2O | Active | Active |  |  |  |
| COc1nc(OCc2cccc(-c3ccccc3)c2C)ccc1CNCCNC(C)=O.Cl |  |  | Non-Toxic | Active | inactive |
